Marks after values point to notes of the source that are not given here.
Test system: septic shock induced by LPS + D-Galactosamine, in mice
Experiment: LPS+D-Galactosamine-induced septic shock model
Assay type: in vivo, SPF female BALB/c inbred mice
Description: The experiments were carried out in vivo on mice. The septic shock was induced by an i.p. administration of a mixture of LPS (0.1 μg/mouse) and D-Galactosamine (18 mg/mouse).
The treatment schedule for r-hTBP-1 based on repeated administrations (the total dose was divided into 4 administrations given at time 0 and […] and 24 hours after), was adopted. CHO r-hTBP-1 was tested, alone or in combination with DHEA, at dose levels of 62.5 and 125 μg/mouse (total dose).
DHEA was tested both in a single administration injected i.p. one hour before and contemporaneously to the septic shock-inducing agent at doses encompassed between 100 and 2.000 μg/mouse and in repeated treatment with the total dose (250 μg/mouse) divided into 4 injections given within 24 hours.
The above treatment schedules of DHEA (doses from 250 to 1,500 μl g/mouse) were followed also in combination with r-hTBP-1 which was tested at the total dose varying from 62.5 to 125 μg/mouse (divided into 4 administrations).
SPF female BALB/c inbred mice, 6–8 weeks (about 18–20 g b.w.), from Charles River were used throughout the whole study after an acclimatisation period of at least 7 days.
Unless otherwise specified, in all the experiments the mice were randomly divided into groups of 10 animals each.
Both substances were dissolved in saline. The mixture of LPS (0.1 μg/mouse) and D-Galactosamine (18 mg/mouse) was prepared by mixing equal volumes of these substances. The mixture was subsequently injected to animals by the i.p. route. This dose was selected under precious experiments as that inducing around 80% mortality calculated as the number of dead vs. total number of mice for each croup. The lethality was monitored after 24, 48, 72 and 96 hours and at day 7 post-treatment.
The drug was diluted in saline and injected by repeated administrations, i.e. i.v. immediately before the inoculum of LPS plus D-Galactosamine and s.c. 3, 6 and 24 hours later.
The effects of DHEA, alone or in combination with r-hTBP-1, were assayed after single i.p. administrations at different times in respect to LPS+D-Galactosamine injection; in particular, it was administered 1 hour before and contemporaneously to the septic shock-inducing agent.
A repeated treatment schedule was also investigated in which DHEA was administered at time 0 (septic shock induction) and 3, 6 and 24 hours later. DHEA was initially vehicled in a mixture of 2.5% alcohol and 10% rabbit serum in saline. To improve the solubility and standardise the preparation, the steroid was successively dispersed in a mixture of 2.5% alcohol and 10% phospholipid emulsion in saline.
The primary end point was the survival rate at 48 hours after induction of septic shock. The comparison of the effects of each treatment group vs. controls and among treatment groups was effected by Fisher's exact test, one-tailed. The same comparison was also performed at the other time points. The results in each treatment group were expressed as percent survival.
In all the experiments, percent survival values were calculated using the survival Tables for the follow up studies (Armitage P. Cap. XIV. Tavole di sopravvivenza in Statistica Medica, Feltrinelli, Milano). The χ^2-test was applied to each observation time by comparing the DHEA+r-hTBP-1 groups to the other groups.

C[C@]12CC[C@H](O)CC1=CC[C@@H]1[C@@H]2CC[C@]2(C)C(=O)CC[C@@H]12 [DHEA, Dehydroepiandrosterone]
complete protection: protective effects (DHEA 2.000 μg/mouse, 1 hour before LPS+D-Galactosamine, all time points)
higher protection: protection (DHEA 1.000 μg contemporaneously with LPS+D-Gal vs same dose 1 hour before)
30%: protection (survival) (DHEA 250 μg/mouse alone at time 0, rabbit serum vehicle) | survival rate (DHEA 250 μg/mouse single injection (group D), 48 hours) | % cumulative survival (DHEA 500 μg/mouse i.p. at time 0, saline 10% rabbit serum, 24 hrs, 2nd exp.) | % cumulative survival (DHEA 500 μg/mouse i.p. at time 0, saline 10% rabbit serum, 48 hrs, 2nd exp.) | % cumulative survival (DHEA 500 μg/mouse i.p. at time 0, saline 10% rabbit serum, 72 hrs, 1st exp.) | % cumulative survival (DHEA 500 μg/mouse i.p. at time 0, saline 10% rabbit serum, 72 hrs, 2nd exp.) | % cumulative survival (DHEA 500 μg/mouse i.p. at time 0, saline 10% rabbit serum, 96 hrs, 1st exp.) | % cumulative survival (DHEA 500 μg/mouse i.p. at time 0, saline 10% rabbit serum, 96 hrs, 2nd exp.)
60%: % cumulative survival (DHEA 1000 μg/mouse i.p. at time 0, saline 10% rabbit serum, 48 hrs, 1st exp.) | % cumulative survival (DHEA 1000 μg/mouse i.p. at time 0, saline 10% rabbit serum, 72 hrs, 1st exp.) | % cumulative survival (DHEA 1000 μg/mouse i.p. at time 0, saline 10% rabbit serum, 96 hrs, 1st exp.)
40%: survival rate (DHEA 1.500 μg/mouse alone, 1 hour before) | survival rate (DHEA 250 μg/mouse divided into 4 inocula at 0, 3, 6 and 24 hours (group E), 48 hours) | % cumulative survival (DHEA 500 μg/mouse i.p. at time 0, saline 10% rabbit serum, 48 hrs, 1st exp.) | % cumulative survival (DHEA 750 μg/mouse i.p. at time 0, saline 10% rabbit serum, 24 hrs, 1st exp.) | % cumulative survival (DHEA 750 μg/mouse i.p. at time 0, saline 10% rabbit serum, 48 hrs, 1st exp.) | % cumulative survival (DHEA 750 μg/mouse i.p. at time 0, saline 10% rabbit serum, 72 hrs, 1st exp.) | % cumulative survival (DHEA 750 μg/mouse i.p. at time 0, saline 10% rabbit serum, 96 hrs, 1st exp.)
50%: % cumulative survival (DHEA 500 μg/mouse i.p. at time 0, saline 10% rabbit serum, 24 hrs, 1st exp.) | % cumulative survival (DHEA 750 μg/mouse i.p. at time 0, saline 10% rabbit serum, 24 hrs, 2nd exp.) | % cumulative survival (DHEA 750 μg/mouse i.p. at time 0, saline 10% rabbit serum, 48 hrs, 2nd exp.) | % cumulative survival (DHEA 750 μg/mouse i.p. at time 0, saline 10% rabbit serum, 72 hrs, 2nd exp.) | % cumulative survival (DHEA 750 μg/mouse i.p. at time 0, saline 10% rabbit serum, 96 hrs, 2nd exp.)
20%: % cumulative survival (DHEA 100 μg/mouse i.p. 1 hour before LPS + D-Gal, saline 10% rabbit serum, 24 hrs, 1st exp) | % cumulative survival (DHEA 100 μg/mouse i.p. 1 hour before LPS + D-Gal, saline 10% rabbit serum, 48 hrs, 1st exp) | % cumulative survival (DHEA 100 μg/mouse i.p. 1 hour before LPS + D-Gal, saline 10% rabbit serum, 72 hrs, 1st exp) | % cumulative survival (DHEA 100 μg/mouse i.p. 1 hour before LPS + D-Gal, saline 10% rabbit serum, 96 hrs, 1st exp) | % cumulative survival (DHEA 250 μg/mouse i.p. at time 0, saline 10% rabbit serum, 24 hrs, 2nd exp.) | % cumulative survival (DHEA 250 μg/mouse i.p. at time 0, saline 10% rabbit serum, 48 hrs, 2nd exp.) | % cumulative survival (DHEA 250 μg/mouse i.p. at time 0, saline 10% rabbit serum, 72 hrs, 2nd exp.) | % cumulative survival (DHEA 250 μg/mouse i.p. at time 0, saline 10% rabbit serum, 96 hrs, 2nd exp.) | % cumulative survival (DHEA 1000 μg/mouse i.p. 1 hour before LPS + D-Gal, saline 10% rabbit serum, 24 hrs, 2nd exp) | % cumulative survival (DHEA 1000 μg/mouse i.p. 1 hour before LPS + D-Gal, saline 10% rabbit serum, 48 hrs, 2nd exp)
0%: % cumulative survival (DHEA 1000 μg/mouse i.p. 1 hour before LPS + D-Gal, saline 10% rabbit serum, 96 hrs, 2nd exp)
10%: % cumulative survival (DHEA 500 μg/mouse i.p. 1 hour before LPS + D-Gal, saline 10% rabbit serum, 24 hrs, 1st exp) | % cumulative survival (DHEA 500 μg/mouse i.p. 1 hour before LPS + D-Gal, saline 10% rabbit serum, 48 hrs, 1st exp) | % cumulative survival (DHEA 500 μg/mouse i.p. 1 hour before LPS + D-Gal, saline 10% rabbit serum, 72 hrs, 1st exp) | % cumulative survival (DHEA 500 μg/mouse i.p. 1 hour before LPS + D-Gal, saline 10% rabbit serum, 96 hrs, 1st exp) | % cumulative survival (DHEA 1000 μg/mouse i.p. 1 hour before LPS + D-Gal, saline 10% rabbit serum, 72 hrs, 2nd exp)
70^a %: % cumulative survival (DHEA 1500 μg/mouse i.p. 1 hour before LPS + D-Gal, saline 10% rabbit serum, 24 hrs, 2nd exp)
80^a %: % cumulative survival (DHEA 1000 μg/mouse i.p. at time 0, saline 10% rabbit serum, 24 hrs, 1st exp.)
